From US5726195A, “Aminoacyl adenylate mimics as novel antimicrobial and antiparasitic agents” (Cubist Pharmaceuticals, Inc., priority 1996, dated 1998)

How the values were obtained:
[1] = biological target: E. Coli. IleRS (isoleucyl-tRNA synthetase) (Escherichia coli, UniProt P00956); assay: Inhibition of isoleucyl-tRNA synthetase (aminoacylation of tRNA with [3H]isoleucine); type: biochemical; conditions: read-out: IC50 E.Coli. IleRS; E. coli enzyme; irreversible inhibitors: values are 50% of the active enzyme concentration
Sequence of E. Coli. IleRS (isoleucyl-tRNA synthetase) (P00956 whole entry): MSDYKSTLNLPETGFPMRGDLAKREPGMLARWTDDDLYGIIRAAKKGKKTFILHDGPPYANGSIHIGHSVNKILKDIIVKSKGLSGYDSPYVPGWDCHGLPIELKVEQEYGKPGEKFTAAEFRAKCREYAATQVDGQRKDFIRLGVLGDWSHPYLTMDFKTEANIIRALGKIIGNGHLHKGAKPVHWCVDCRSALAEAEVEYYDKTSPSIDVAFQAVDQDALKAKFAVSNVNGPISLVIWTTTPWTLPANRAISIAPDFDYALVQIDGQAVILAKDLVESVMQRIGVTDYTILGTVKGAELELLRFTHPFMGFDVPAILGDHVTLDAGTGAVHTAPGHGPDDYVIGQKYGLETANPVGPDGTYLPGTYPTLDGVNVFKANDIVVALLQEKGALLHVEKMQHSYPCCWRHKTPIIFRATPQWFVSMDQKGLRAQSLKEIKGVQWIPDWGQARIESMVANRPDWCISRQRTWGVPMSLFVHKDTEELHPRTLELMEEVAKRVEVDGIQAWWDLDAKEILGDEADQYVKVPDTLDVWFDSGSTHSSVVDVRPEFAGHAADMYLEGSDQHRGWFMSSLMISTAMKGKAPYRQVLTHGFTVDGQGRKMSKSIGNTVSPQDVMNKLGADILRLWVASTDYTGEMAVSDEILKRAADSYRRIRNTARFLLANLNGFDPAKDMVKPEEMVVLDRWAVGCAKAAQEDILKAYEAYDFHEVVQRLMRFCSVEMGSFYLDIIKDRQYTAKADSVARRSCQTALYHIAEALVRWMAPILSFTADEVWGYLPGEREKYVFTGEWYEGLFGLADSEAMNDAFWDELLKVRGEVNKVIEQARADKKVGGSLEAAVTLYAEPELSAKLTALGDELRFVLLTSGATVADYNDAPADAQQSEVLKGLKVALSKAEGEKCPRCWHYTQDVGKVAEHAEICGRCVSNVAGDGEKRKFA
Procedure, shortened: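 Enzyme (0.08-2.0 nM, preferably 0.4 nM) preincubated 20 min at 25° C. with compound, then reacted at 25° C. with 4 mM ATP, 5-20 μM [3H]isoleucine, 90 μM crude or 2 μM specific tRNA in HEPES pH 7.5. TCA-precipitable radioactivity counted; IC50 relative to uninhibited activity.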

[2] = tested on: multidrug resistant Streptococcus pyogenes (#OTTO 209); assay: Mouse protection test against multidrug resistant Streptococcus pyogenes; type: in vivo, Streptococcus pyogenes; female CD-1 mice; conditions: for Protective % / Number of Alive: repeated at 4 hours, 7 days; for Number of Alive: of 5 mice
Text: The mouse protection test is an industry standard for measuring the efficacy of a test compound in vivo [for examples of this model see J. J. Clement, et al., Antimicrobial Agents and Chemotherapy, 38 (5), 1071-1078, (1994)]. As exemplified below, this test was used to show the in vivo efficacy of the compounds of the present invention against bacteria.
The in vivo activity of compound X against multidrug resistant bacteria was established by infecting female CD-1 mice (Charles River Lab, Massachusettes) weighing 20-24 g intraperitoneally with multidrug resistant Streptococcus pyogenes inoculum. The inoculum was prepared from multidrug resistant Streptococcus pyogenes (resistant to erythromycin, tetracycline, and chloramphenicol, #OTTO 209 obtained from Dr. Pentti Huovinen, National Public Health Institute, Finland) which was cultured in brain heart infusion broth (Baltimore Biological Laboratories, Maryland) at 37° C. for 2 hr, and then 0.1 ml of the culture was diluted with the medium to 1.0 ml for reading its OD at 600 nm (0.12). The turbidity of a 0.5 McFarland standard is equivalent to OD600 0.1, or 10^8 cfu/ml. Then, 4×10^8 cfu of the bacteria (333 μl was added to 20 ml of phosphate buffered saline (Sigma P-0261 ) containing 10 % hog gastric mucin (Sigma M-2378). All animals were injected with 0.5 ml of the inoculum, equivalent to 10^7 cfu/mouse which is the dose causing ~100% death of the animals without treatment.
Compound X (60 mg) was dissolved in 6.0 ml of 0.05M Tris.HCl (pH 8.8) to give a solution of 10 mg/ml. This solution was serially diluted two times with 0.05M Tris.HCl by 5-fold (1.0 ml to 5.0 ml) to give 2 and 0.4 mg/ml solutions. The known antibiotic vancomycin HCl (Sigma V-2002, in normal saline, 1 mg/ml, pH 6.0-7.0) was used as a positive control. All the solutions were filtered with 0.2 μm Nalgene syringe filter. Immediately after the bacterial inoculation, group 1 animals were subcutaneously (sc) injected with 0.05M Tris.HCl (no antibiotic) and groups 2 to 4 were given compound X sc at 4, 20 and 100 mg/kg, respectively. Group 5 animals received vancomycin sc at 10 mg/kg. These injections were repeated once at 4 hours after the inoculation for the respective groups. The injection volume at each time was 10 ml per kilogram of body weight. The 50% protective dose (PD50) is calculated on the basis of the number of mice surviving 7 days after inoculation.

## CC[C@H](C)[C@H](N)C(=O)NS(=O)(=O)OC[C@H]1O[C@@H](CCn2nnc(-c3ccc(Oc4ccccc4)cc3)n2)[C@H](O)[C@@H]1O [Compound X, [S-(R*,R*)]-3,6-anhydro-1,2-dideoxy-1-[5-(4-phenoxyphenyl)-2H-tetrazol-2-yl]-D-allo-heptitol 7-(2-amino-3-methyl-1-oxopentyl)sulfamate]
[1]
  IC50: 1.3 nM
[2]; 4 mg/kg sc
  Protective %: 0%
  Number of Alive: 0
[2]; 20 mg/kg sc
  Protective %: 80%
  Number of Alive: 4
[2]; 100 mg/kg sc
  Protective %: 100%
  Number of Alive: 5
[2]; Streptococcus pyogenes, 168 h, sc, mice surviving 7 days after inoculation, multidrug resistant, read-out: PD50 (50% protective dose)
  ED50: 16.5 mg/kg
